Patent US7625936B2, “Mitotic kinesin inhibitors” (Merck & Co. Inc., priority 2005, dated 2009)

Biological target: T1, human KSP motor domain (KSP(367H)) (Homo sapiens, UniProt P52732)
T1 construct: were used to amplify the motor domain and the neck linker region; made in house; host or cells: E. coli BL21 (DE3), vector pRSETa
T1 sequence (P52732 1-367): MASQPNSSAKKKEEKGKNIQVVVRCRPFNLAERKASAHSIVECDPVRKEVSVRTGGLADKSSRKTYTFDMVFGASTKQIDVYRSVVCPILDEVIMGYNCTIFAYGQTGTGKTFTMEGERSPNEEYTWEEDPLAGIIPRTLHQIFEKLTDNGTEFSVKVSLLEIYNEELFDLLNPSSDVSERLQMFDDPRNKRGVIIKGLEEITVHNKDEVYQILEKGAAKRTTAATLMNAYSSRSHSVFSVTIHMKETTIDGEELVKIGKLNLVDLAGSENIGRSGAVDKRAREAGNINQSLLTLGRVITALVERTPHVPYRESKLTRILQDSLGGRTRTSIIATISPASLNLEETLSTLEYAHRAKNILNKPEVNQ
Test: Kinesin ATPase in vitro assay
Type: biochemical
Settings: kinesin motor domain incubated with microtubules, 1 mM ATP and compound at 23° C.; free phosphate by quinaldine red/ammonium molybdate, absorbance 540 nm
From the text: I. Kinesin ATPase In Vitro Assay
Cloning and Expression of Human Poly-Histidine Tagged KSP Motor Domain (KSP(367H))
Plasmids for the expression of the human KSP motor domain construct were cloned by PCR using a pBluescript full length human KSP construct (Blangy et al., Cell, vol. 83, pp 1159-1169, 1995) as a template. The N-terminal primer 5′-[…] (SEQ.ID.NO.: 1) and the C-terminal primer 5′-[…] […] (SEQ.ID.NO.: 2)were used to amplify the motor domain and the neck linker region. The PCR products were digested with AseI and XhoI, ligated into the NdeI/XhoI digestion product of pRSETa (Invitrogen) and transformed into E. coli BL21 (DE3).
Cells were grown at 37° C. to an OD600 of 0.5. […]
The kinesin motor domain is incubated with microtubules, 1 mM ATP (1:1 MgCl2: Na-ATP), and compound at 23° C. in buffer containing 80 mM K-HEPES (pH 7.0), 1 mM EGTA, 1 mM DTT, 1 mM MgCl2, and 50 mM KCl. […] Free phosphate from the ATP hydrolysis reaction is measured via a quinaldine red/ammonium molybdate assay by adding 150 μl of quench C buffer containing a 2:1 ratio of quench A:quench B. Quench A contains 0.1 mg/ml quinaldine red and 0.14% polyvinyl alcohol; quench B contains 12.3 mM ammonium molybdate tetrahydrate in 1.15 M sulfuric acid. The reaction is incubated for 10 minutes at 23° C., and the absorbance of the phospho-molybdate complex is measured at 540 nm.

Row | Structure (SMILES) | IC50 [µM]
1 | CC(=O)N1N=C(c2cc(F)ccc2F)CC1(CC[Si](C)(C)O)c1ccccc1 (centres unmarked) [Compound 1-5, {2-[1-acetyl-3-(2,5-difluorophenyl)-5-phenyl-4,5-dihydro-1H-pyrazol-5-yl]ethyl}(dimethyl)silanol] | ≤ 50
2 | CC(=O)N1CCN(CCC[C@@]2(c3ccccc3)CC(c3cc([Si](C)(C)C)ccc3F)=NN2C(C)=O)CC1 [Compound 3-8, 1-acetyl-4-(3-{(5S)-1-acetyl-3-[2-fluoro-5-(trimethylsilyl)phenyl]-5-phenyl-4,5-dihydro-1H-pyrazol-5-yl}propyl)piperazine] | ≤ 50
